Assay results: patent EP4050002A1, “ANTI-PROLIFERATIVE AGENTS” (First Health Pharmaceuticals B.V., priority 2021, dated 2022)

Assays:
[1] = target: T1, CYP1A2 (Homo sapiens, UniProt P05177); experiment: Cytochrome P450 inhibition; assay type: in vitro ADME; details: 1A2, Human Liver Microsome
T1 construct: 158 µl of Human Liver Microsome working stock solution; from tissue; host or cells: human liver microsomes
Experimental: (§1) Ready to use PBS, 9.07-10.00 g, (Sigma Aldrich, catalogue code P3813) was dissolved in […] MilliQ water and pH was adjusted to 7.4.
(§2) Substrate pool was done pooling 14 µl of Phenacitin 10 mM (CYP1A2 substrate, Sigma Aldrich, catalogue number 7740), 14 µl Diclofenac 10 mM (CYP2C9 substrate, Sigma Aldrich, catalogue number D6899), 14 µl Dextromethorphan 10 mM (CYP2D6 substrate, Sigma Aldrich, catalogue number D9684), 20.28 µl Midazolam 2.76 mM (CYP3A4 substrate, Sigma Aldrich, catalogue number UC430) and 14 µl Bupropion HCl 10 mM (CYP2B6 substrate, Sigma Aldrich, catalogue number B102), and diluted to 2800 µl with PBS buffer pH 7.4.
(§3) Inhibitors of the cytochromes tested were the following: Alpha-naphthoflavone (CYP1A2, Sigma Aldrich, catalogue number N5757); Sulfaphenazole (CYP2C9, Sigma Aldrich, catalogue number S0758); Ticlopidine (CYP2B6, Sigma Aldrich, catalogue number T6654); Quinidine (CYP2D6, Sigma Aldrich, catalogue number Q3625); Ketoconazole (CYP3A4, Sigma Aldrich, catalogue number K1003).
(§4) 158 µl of Human Liver Microsome working stock solution in PBS buffer pH7.4 was added to reaction plate (0.253 mg/ml, 158 µl/well).
(§5) Test compounds and inhibitors were prepared in DMSO and diluted with buffer to prepare working solution with the final concentration of 3000, 999, 333, 111, 37 and 12 µM. 2 µl of working solution of the test compounds or inhibitors listed above were added to reaction plate (2 µl/ well). For control, 2 µl of Acetonitrile containing DMSO (without inhibitor) was added to reaction plate. 20 µl of substrate pool was added to all the wells of the reaction plate. The samples were mixed using the vortex and pre-incubated at 37°C for 5 min.
(§6) The NADPH solution 10 mM in PBS buffer pH 7.4 was pre-warmed at 37°C for 5 min. 20 µl of pre-warmed NADPH solution was added to the reaction plate and then incubated at 37°C for 10 min.
(§7) The reaction was terminated by adding cold ACN (200 µl/well) to the reaction mixture and centrifuged at 4,000 rpm for 20 minutes.
(§8) After centrifugation, 200 µl of supernatant was submitted for LC-MS/MS analysis. Mobile phases include 0.1% formic acid in water and methanol:acetonitrile, 50% (v/v).
(§9) Column is Phenomenex kinetic C18, 50 x 4.6 mm, […]. IC50 values were calculated using Graphpad Prism (version 4.03).

[2] = target: T2, CYP2B6 (Homo sapiens, UniProt P20813); experiment: Cytochrome P450 inhibition; assay type: in vitro ADME; details: 2B6, Human Liver Microsome
T2 construct: 158 µl of Human Liver Microsome working stock solution; from tissue; host or cells: human liver microsomes
Experimental: as §1, §2, §3, §4, §5, §6, §7, §8, §9

[3] = target: T3, CYP2C9 (Homo sapiens, UniProt P11712); experiment: Cytochrome P450 inhibition; assay type: in vitro ADME; details: 2C9, Human Liver Microsome
T3 construct: 158 µl of Human Liver Microsome working stock solution; from tissue; host or cells: human liver microsomes
Experimental: as §1, §2, §3, §4, §5, §6, §7, §8, §9

[4] = target: T4, CYP2D6 (Homo sapiens, UniProt P10635); experiment: Cytochrome P450 inhibition; assay type: in vitro ADME; details: 2D6, Human Liver Microsome
T4 construct: 158 µl of Human Liver Microsome working stock solution; from tissue; host or cells: human liver microsomes
Experimental: as §1, §2, §3, §4, §5, §6, §7, §8, §9

[5] = target: T5, CYP3A4 (Homo sapiens, UniProt P08684); experiment: Cytochrome P450 inhibition; assay type: in vitro ADME; details: 3A4, Human Liver Microsome
T5 construct: 158 µl of Human Liver Microsome working stock solution; from tissue; host or cells: human liver microsomes
Experimental: as §1, §2, §3, §4, §5, §6, §7, §8, §9

[6] = target: T6, hERG channels (Homo sapiens, UniProt Q12809); experiment: hERG inhibition (whole cell patch clamp, HEK293); assay type: cell-based; details: 300nM to 30µM, HEK293 cells
T6 construct: host or cells: HEK293
Experimental: HEK293 cells (Eurofins Discover X, Catalogue number CYL3039) stably expressing hERG channels (human ether-a-go-go-related gene potassium channels were plated onto 12 mm coverslips, 12 to 18 h before performing the assay. Cells with coverslips were placed in recording chamber of molecular devices profiled with extracellular solution. Glass capillary with a tip resistance from […] was back filled with intracellular solution. Giga seal was attained using a sequence of positive and negative pressure.
Whole cell configuration was attained using a gentle suction. Cell capacitance and series resistance compensation was done using software controls provided in multi clamp 700B commander. The cells are maintained at a holding potential of -80mV; hERG currents are activated by cell depolarization to +20mV for 2 seconds followed by a 3 second repolarization to -60mV (frequency: 0.05Hz).
Electrical signals were filtered at 2 KHz and digitized at 5 KHz. Series resistance compensation was typically 60% to 70% such that voltage errors were less than 5 mV. […] Data were acquired using Clampex acquisition software. […]
Amplitude of the tail current upon repolarization to -60mV (pA) and inhibition of the hERG tail current with respect to untreated cells (%) are measured. […]

T4 sequence (P10635 whole entry): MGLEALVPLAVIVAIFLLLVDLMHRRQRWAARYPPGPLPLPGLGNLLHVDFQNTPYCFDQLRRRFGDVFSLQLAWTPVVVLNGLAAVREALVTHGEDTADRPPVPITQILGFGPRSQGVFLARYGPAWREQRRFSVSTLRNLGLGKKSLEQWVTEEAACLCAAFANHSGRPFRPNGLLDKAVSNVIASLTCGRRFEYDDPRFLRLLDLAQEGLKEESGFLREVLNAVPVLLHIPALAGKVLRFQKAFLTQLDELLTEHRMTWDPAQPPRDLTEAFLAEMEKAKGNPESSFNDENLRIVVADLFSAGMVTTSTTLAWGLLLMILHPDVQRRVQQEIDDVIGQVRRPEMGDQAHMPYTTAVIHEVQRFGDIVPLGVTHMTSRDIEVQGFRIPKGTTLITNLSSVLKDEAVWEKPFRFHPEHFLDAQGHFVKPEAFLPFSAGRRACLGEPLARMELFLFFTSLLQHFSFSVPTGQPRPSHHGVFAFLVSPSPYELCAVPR
T2 sequence (P20813 whole entry): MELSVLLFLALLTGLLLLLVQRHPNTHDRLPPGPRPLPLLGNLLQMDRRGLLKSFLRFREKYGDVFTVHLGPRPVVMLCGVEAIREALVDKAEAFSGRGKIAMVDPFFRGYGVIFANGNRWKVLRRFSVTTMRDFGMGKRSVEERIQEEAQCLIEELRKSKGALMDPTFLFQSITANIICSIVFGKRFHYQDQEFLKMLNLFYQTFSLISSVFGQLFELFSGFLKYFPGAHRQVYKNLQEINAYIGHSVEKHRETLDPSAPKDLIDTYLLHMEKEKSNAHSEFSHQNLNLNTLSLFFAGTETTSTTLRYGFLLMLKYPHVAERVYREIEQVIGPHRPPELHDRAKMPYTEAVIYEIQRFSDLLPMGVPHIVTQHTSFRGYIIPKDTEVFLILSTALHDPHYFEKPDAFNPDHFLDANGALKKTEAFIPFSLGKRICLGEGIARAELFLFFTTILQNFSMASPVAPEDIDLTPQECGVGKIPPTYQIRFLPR
T5 sequence (P08684 whole entry): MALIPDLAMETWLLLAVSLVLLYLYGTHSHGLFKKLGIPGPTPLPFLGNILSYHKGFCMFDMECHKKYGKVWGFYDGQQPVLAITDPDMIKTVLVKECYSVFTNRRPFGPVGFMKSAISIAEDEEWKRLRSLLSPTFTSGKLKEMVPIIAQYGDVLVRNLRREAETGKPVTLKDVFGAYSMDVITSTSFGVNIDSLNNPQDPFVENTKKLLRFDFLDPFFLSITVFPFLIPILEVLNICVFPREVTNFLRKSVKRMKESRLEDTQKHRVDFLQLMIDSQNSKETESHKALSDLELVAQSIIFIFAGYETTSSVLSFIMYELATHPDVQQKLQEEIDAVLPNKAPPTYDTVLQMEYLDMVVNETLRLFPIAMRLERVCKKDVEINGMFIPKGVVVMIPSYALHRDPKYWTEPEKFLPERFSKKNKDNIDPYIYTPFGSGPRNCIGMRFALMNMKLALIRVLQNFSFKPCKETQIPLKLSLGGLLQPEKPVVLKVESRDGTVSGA
T3 sequence (P11712 whole entry): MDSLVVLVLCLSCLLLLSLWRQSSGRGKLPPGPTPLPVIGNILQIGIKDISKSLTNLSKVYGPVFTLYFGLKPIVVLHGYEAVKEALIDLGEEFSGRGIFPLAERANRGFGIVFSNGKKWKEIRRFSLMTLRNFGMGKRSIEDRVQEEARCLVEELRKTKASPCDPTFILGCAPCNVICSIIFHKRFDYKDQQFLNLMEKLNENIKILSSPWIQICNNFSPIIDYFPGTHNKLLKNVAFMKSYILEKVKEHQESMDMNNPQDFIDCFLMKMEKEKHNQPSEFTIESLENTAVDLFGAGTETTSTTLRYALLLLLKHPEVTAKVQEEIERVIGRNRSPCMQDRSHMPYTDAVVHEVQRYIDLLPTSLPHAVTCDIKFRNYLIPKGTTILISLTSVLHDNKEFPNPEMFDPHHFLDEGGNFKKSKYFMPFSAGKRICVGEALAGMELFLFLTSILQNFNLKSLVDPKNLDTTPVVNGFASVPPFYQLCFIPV
T6 sequence (Q12809 whole entry): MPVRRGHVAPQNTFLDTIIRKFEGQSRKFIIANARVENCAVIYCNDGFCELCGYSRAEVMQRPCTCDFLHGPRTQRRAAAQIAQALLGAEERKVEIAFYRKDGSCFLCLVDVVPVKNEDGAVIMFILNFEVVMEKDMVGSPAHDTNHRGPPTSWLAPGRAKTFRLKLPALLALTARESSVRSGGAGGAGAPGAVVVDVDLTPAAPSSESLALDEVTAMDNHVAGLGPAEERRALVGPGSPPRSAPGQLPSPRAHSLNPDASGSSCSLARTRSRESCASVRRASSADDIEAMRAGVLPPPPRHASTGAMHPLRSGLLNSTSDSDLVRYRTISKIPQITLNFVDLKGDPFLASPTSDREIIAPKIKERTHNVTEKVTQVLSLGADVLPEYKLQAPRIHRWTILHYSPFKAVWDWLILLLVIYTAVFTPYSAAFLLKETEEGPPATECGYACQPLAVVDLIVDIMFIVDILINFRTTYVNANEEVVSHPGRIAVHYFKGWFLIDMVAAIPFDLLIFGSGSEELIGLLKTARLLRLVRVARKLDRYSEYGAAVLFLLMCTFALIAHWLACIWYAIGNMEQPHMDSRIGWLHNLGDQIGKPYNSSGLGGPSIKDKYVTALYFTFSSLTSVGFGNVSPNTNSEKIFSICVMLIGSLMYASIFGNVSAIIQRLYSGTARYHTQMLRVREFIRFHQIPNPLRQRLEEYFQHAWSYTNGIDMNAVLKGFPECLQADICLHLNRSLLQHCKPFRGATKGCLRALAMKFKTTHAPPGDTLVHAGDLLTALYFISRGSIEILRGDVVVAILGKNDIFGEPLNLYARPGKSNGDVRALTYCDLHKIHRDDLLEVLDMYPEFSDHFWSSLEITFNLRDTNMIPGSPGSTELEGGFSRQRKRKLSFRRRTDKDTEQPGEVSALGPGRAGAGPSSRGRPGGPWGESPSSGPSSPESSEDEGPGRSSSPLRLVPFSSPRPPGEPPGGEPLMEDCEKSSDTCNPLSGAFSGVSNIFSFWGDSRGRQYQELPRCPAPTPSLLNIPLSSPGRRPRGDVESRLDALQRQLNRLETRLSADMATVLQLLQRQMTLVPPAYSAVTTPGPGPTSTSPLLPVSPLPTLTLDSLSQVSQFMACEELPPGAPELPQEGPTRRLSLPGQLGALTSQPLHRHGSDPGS
T1 sequence (P05177 whole entry): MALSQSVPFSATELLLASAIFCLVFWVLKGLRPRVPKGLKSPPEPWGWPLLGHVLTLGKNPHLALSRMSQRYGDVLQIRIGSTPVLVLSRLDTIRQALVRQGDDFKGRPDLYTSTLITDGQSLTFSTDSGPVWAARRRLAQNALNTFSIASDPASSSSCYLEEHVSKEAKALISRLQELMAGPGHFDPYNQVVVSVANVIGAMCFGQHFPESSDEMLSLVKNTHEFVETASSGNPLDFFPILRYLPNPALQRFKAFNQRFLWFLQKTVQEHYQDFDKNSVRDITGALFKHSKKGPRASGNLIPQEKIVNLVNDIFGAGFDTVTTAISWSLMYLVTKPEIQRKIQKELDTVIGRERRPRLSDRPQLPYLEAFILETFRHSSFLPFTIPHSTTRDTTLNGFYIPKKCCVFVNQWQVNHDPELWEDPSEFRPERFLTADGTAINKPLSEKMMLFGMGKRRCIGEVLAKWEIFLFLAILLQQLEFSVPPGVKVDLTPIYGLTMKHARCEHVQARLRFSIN

## CCCCc1cn(-c2ccc(-c3nnc(-c4ccccc4C(F)(F)F)o3)cc2)nn1 [Compound 5]
[1]
  IC50: > 30 µM
[2]
  IC50: > 30 µM
[3]
  IC50: > 30 µM
[4]
  IC50: > 30 µM
[5]
  IC50: > 30 µM
[6]
  effect on the conductance of the hERG channel: No effect on the conductance of the hERG channel
